Measured values as given in patent US6737383B1, “Herbicidal oxadiazolidines” (priority 1999, dated 2004).

Columns and labels:
bamyardgrass = assay: Test B flood test barnyardgrass; format: in vivo, Echinochloa crus-galli
How it was run: (§1)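 Read-out is a visual response score from 0 (no effect) to 10 (complete control), assigned by comparison with untreated controls. Treatment was applied at the 2-leaf stage, and plants stayed in the greenhouse for twelve to sixteen days before scoring.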

smallflower flatsedge = assay: Test B flood test smallflower flatsedge; format: in vivo, Cyperus difformis
How it was run: as §1

soybean = assay: Test B pre/postemergence soybean; format: in vivo, Glycine max; details: for Soybean plant response rating: scale of 0 to 10 where 0 is no effect and 10 is complete control
How it was run: (§2)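 Response is a visual 0-to-10 score relative to untreated plants, where 0 means no effect and 10 means complete control, taken twelve to sixteen days after application. Treatments went onto soil at planting and onto foliage of 1- to 4-leaf plants, using a surfactant-containing non-phytotoxic solvent.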

pigweed = assay: Test B pre/postemergence pigweed; format: in vivo, Amaranthus retroflexus; details: for Redroot pigweed plant response rating: scale of 0 to 10 where 0 is no effect and 10 is complete control
How it was run: as §2

purple nutsedge = assay: Test B pre/postemergence purple nutsedge; format: in vivo, Cyperus rotundus; details: for Nutsedge plant response rating: scale of 0 to 10 where 0 is no effect and 10 is complete control
How it was run: as §2

sugar beet = assay: Test B pre/postemergence sugar beet; format: in vivo, Beta vulgaris; details: for Sugarbeets plant response rating: scale of 0 to 10 where 0 is no effect and 10 is complete control
How it was run: as §2

wild oat = assay: Test B pre/postemergence wild oat; format: in vivo, Avena fatua; details: for Wild oats plant response rating: scale of 0 to 10 where 0 is no effect and 10 is complete control
How it was run: as §2

cocklebur = assay: Test B pre/postemergence cocklebur; format: in vivo, Xanthium strumarium; details: for Cocklebur plant response rating: scale of 0 to 10 where 0 is no effect and 10 is complete control
How it was run: as §2

rice = assay: Test B flood test rice; format: in vivo, Oryza sativa
How it was run: as §1

duck salad = assay: Test B flood test duck salad; format: in vivo, Heteranthera limosa
How it was run: as §1

crabgrass = assay: Test B pre/postemergence crabgrass; format: in vivo, Digitaria sanguinalis; details: for Crabgrass plant response rating: scale of 0 to 10 where 0 is no effect and 10 is complete control
How it was run: as §2

rape = assay: Test B pre/postemergence rape; format: in vivo, Brassica napus; details: for Rape plant response rating: scale of 0 to 10 where 0 is no effect and 10 is complete control
How it was run: as §2

giant foxtail = assay: Test B pre/postemergence giant foxtail; format: in vivo, Setaria faberii; details: for Giant foxtail plant response rating: scale of 0 to 10 where 0 is no effect and 10 is complete control
How it was run: as §2

morningglory = assay: Test B pre/postemergence morningglory; format: in vivo, Ipomoea hederacea; details: for Morningglory plant response rating: scale of 0 to 10 where 0 is no effect and 10 is complete control
How it was run: as §2

corn = assay: Test B pre/postemergence corn; format: in vivo, Zea mays; details: for Corn plant response rating: scale of 0 to 10 where 0 is no effect and 10 is complete control
How it was run: as §2

surinam grass = assay: Test B pre/postemergence surinam grass; format: in vivo, Brachiaria decumbens
How it was run: as §2

[1] = Postemergence (flood test), Rate 125 g/ha, scale 0 to 10, 0 is no effect, 10 is complete control
[2] = Rate 62 g/ha, Postemergence (flood test species), scale of 0 to 10 where 0 is no effect and 10 is complete control
[3] = Rate 500 g/ha, listed under Postemergence (flood test species), scale 0 to 10, 0 no effect, 10 complete control
[4] = Postemergence, Rate 125 g/ha, scale 0 to 10, 0 is no effect, 10 is complete control
[5] = Preemergence, Rate 62 g/ha, scale 0 to 10 (0 no effect, 10 complete control)
[6] = Rate 500 g/ha, Postemergence, scale 0 to 10, 0 no effect, 10 complete control

## CC(C)N(C(=O)n1oc(=O)n(CC2CCCO2)c1=O)c1ccc(F)cc1 (centres unmarked) [Compound 343]
bamyardgrass; [1]
  Plant response rating, Barnyardgrass: 0
bamyardgrass; [2]
  Barnyardgrass plant response rating: 0
bamyardgrass; Rate 250 g/ha, Postemergence (flood test species), scale of 0 to 10 where 0 is no effect and 10 is complete control
  Plant response rating, Barnyardgrass: 0
bamyardgrass; [3]
  Plant response rating, Barnyardgrass: 2
Smallflower flatsedge; [1]
  Plant response rating, S. Flatsedge: 0
Smallflower flatsedge; [2]
  S. Flatsedge plant response rating: 0
Smallflower flatsedge; [3]
  Plant response rating, S. Flatsedge: 0
soybean; [4]
  Plant response rating, Soybean: 1
soybean; [5]
  Plant response rating, Soybean: 0
soybean; Preemergence, Rate 125 g/ha
  Soybean plant response rating (0 to 10 scale): 0
soybean; Preemergence, Rate 250 g/ha
  Soybean plant response rating: 0
soybean; Preemergence, Rate 500 g/ha
  Soybean plant response rating: 0
soybean; Rate 62 g/ha, Postemergence
  Soybean plant response rating: 1
soybean; [6]
  Plant response rating, Soybean: 3
pigweed; [4]
  Plant response rating, Redroot pigweed: 0
pigweed; [5]
  Plant response rating, Redroot pigweed: 10
pigweed; Preemergence, Rate 125 g/ha
  Redroot pigweed plant response rating (0 to 10 scale): 10
pigweed; Preemergence, Rate 250 g/ha
  Redroot pigweed plant response rating: 10
pigweed; Preemergence, Rate 500 g/ha
  Redroot pigweed plant response rating: 10
pigweed; Rate 62 g/ha, Postemergence
  Redroot pigweed plant response rating: 0
pigweed; [6]
  Plant response rating, Redroot pigweed: 5
Purple nutsedge; [4]
  Plant response rating, Nutsedge: 0
Purple nutsedge; [5]
  Plant response rating, Nutsedge: 0
Purple nutsedge; Preemergence, Rate 125 g/ha
  Nutsedge plant response rating (0 to 10 scale): 0
Purple nutsedge; Preemergence, Rate 250 g/ha
  Nutsedge plant response rating: 0
Purple nutsedge; Preemergence, Rate 500 g/ha
  Nutsedge plant response rating: 0
Purple nutsedge; Rate 62 g/ha, Postemergence
  Nutsedge plant response rating: 0
Purple nutsedge; [6]
  Plant response rating, Nutsedge: 3
Sugar beet; [4]
  Plant response rating, Sugarbeets: 0
Sugar beet; [5]
  Plant response rating, Sugarbeets: 0
Sugar beet; Preemergence, Rate 125 g/ha
  Sugarbeets plant response rating (0 to 10 scale): 0
Sugar beet; Preemergence, Rate 250 g/ha
  Sugarbeets plant response rating: 1
Sugar beet; Preemergence, Rate 500 g/ha
  Sugarbeets plant response rating: 6
Sugar beet; Rate 62 g/ha, Postemergence
  Sugarbeets plant response rating: 0
Sugar beet; [6]
  Plant response rating, Sugarbeets: 3
Wild oat; [4]
  Plant response rating, Wild oats: 4
Wild oat; [5]
  Plant response rating, Wild oats: 2
Wild oat; Preemergence, Rate 125 g/ha
  Wild oats plant response rating (0 to 10 scale): 4
Wild oat; Preemergence, Rate 250 g/ha
  Wild oats plant response rating: 9
Wild oat; Preemergence, Rate 500 g/ha
  Wild oats plant response rating: 9
Wild oat; Rate 62 g/ha, Postemergence
  Wild oats plant response rating: 0
Wild oat; [6]
  Plant response rating, Wild oats: 4
cocklebur; [4]
  Plant response rating, Cocklebur: 0
cocklebur; [5]
  Plant response rating, Cocklebur: 0
cocklebur; Preemergence, Rate 250 g/ha
  Cocklebur plant response rating: 0
cocklebur; Preemergence, Rate 500 g/ha
  Cocklebur plant response rating: 0
cocklebur; Rate 62 g/ha, Postemergence
  Cocklebur plant response rating: 0
cocklebur; [6]
  Plant response rating, Cocklebur: 4
rice; [1]
  Plant response rating, Rice: 0
rice; [2]
  Rice plant response rating: 0
rice; [3]
  Plant response rating, Rice: 0
Duck salad; [1]
  Plant response rating, Ducksalad: 0
Duck salad; [2]
  Ducksalad plant response rating: 0
Duck salad; [3]
  Plant response rating, Ducksalad: 0
crabgrass; [4]
  Plant response rating, Crabgrass: 1
crabgrass; [5]
  Plant response rating, Crabgrass: 6
crabgrass; Preemergence, Rate 125 g/ha
  Crabgrass plant response rating (0 to 10 scale): 9
crabgrass; Preemergence, Rate 500 g/ha
  Crabgrass plant response rating: 10
crabgrass; Rate 62 g/ha, Postemergence
  Crabgrass plant response rating: 1
crabgrass; [6]
  Plant response rating, Crabgrass: 6
rape; [4]
  Plant response rating, Rape: 0
rape; [5]
  Plant response rating, Rape: 0
rape; Preemergence, Rate 125 g/ha
  Rape plant response rating (0 to 10 scale): 0
rape; Preemergence, Rate 250 g/ha
  Rape plant response rating: 4
rape; Preemergence, Rate 500 g/ha
  Rape plant response rating: 6
rape; Rate 62 g/ha, Postemergence
  Rape plant response rating: 0
rape; [6]
  Plant response rating, Rape: 3
Giant foxtail; [4]
  Plant response rating, Giant foxtail: 7
Giant foxtail; [5]
  Plant response rating, Giant foxtail: 10
Giant foxtail; Preemergence, Rate 125 g/ha
  Giant foxtail plant response rating (0 to 10 scale): 10
Giant foxtail; Preemergence, Rate 250 g/ha
  Giant foxtail plant response rating: 10
Giant foxtail; Preemergence, Rate 500 g/ha
  Giant foxtail plant response rating: 10
Giant foxtail; Rate 62 g/ha, Postemergence
  Giant foxtail plant response rating: 7
Giant foxtail; [6]
  Plant response rating, Giant foxtail: 9
morningglory; [4]
  Plant response rating, Morningglory: 2
morningglory; [5]
  Plant response rating, Morningglory: 0
morningglory; Preemergence, Rate 125 g/ha
  Morningglory plant response rating (0 to 10 scale): 2
morningglory; Preemergence, Rate 500 g/ha
  Morningglory plant response rating: 3
morningglory; Rate 62 g/ha, Postemergence
  Morningglory plant response rating: 2
morningglory; [6]
  Plant response rating, Morningglory: 9
corn; [4]
  Plant response rating, Corn: 0
corn; [5]
  Plant response rating, Corn: 0
corn; Preemergence, Rate 125 g/ha
  Corn plant response rating (0 to 10 scale): 0
corn; Preemergence, Rate 250 g/ha
  Corn plant response rating: 0
corn; Preemergence, Rate 500 g/ha
  Corn plant response rating: 4
corn; Rate 62 g/ha, Postemergence
  Corn plant response rating: 0
corn; [6]
  Plant response rating, Corn: 2
Surinam grass; [4]
  Plant response rating, B. signalgrass: 4
Surinam grass; [5]
  Plant response rating, B. signalgrass: 3
Surinam grass; Preemergence, Rate 125 g/ha
  B. signalgrass plant response rating (0 to 10 scale, 0 is no effect, 10 is complete control): 4
Surinam grass; Preemergence, Rate 250 g/ha, scale of 0 to 10 where 0 is no effect and 10 is complete control
  B. signalgrass plant response rating: 6
Surinam grass; Preemergence, Rate 500 g/ha, scale of 0 to 10 where 0 is no effect and 10 is complete control
  B. signalgrass plant response rating: 8
Surinam grass; Rate 62 g/ha, Postemergence, scale of 0 to 10 where 0 is no effect and 10 is complete control
  B. signalgrass plant response rating: 2
Surinam grass; Rate 250 g/ha, Postemergence, scale of 0 to 10 where 0 is no effect and 10 is complete control
  Plant response rating, B. signalgrass: 4
Surinam grass; [6]
  Plant response rating, B. signalgrass: 7
